Source: the NIST ThermoML archive (doi:10.1016/j.jct.2018.08.033)
± gives the expanded uncertainty stated by the source.

How the values were obtained:
[1] = xn = mol fraction of the nth substance listed; settings: 100 kPa, Liquid, Vibrating tube method, x2 = 0.9938
[2] = Liquid; for mass density: 100 kPa, Vibrating tube method; for speed of sound: 101.33 kPa, Single path-length method

Row | SMILES | mass density ([1]; 283.15 K) [kg/m3] | mass density ([1]; 288.15 K) [kg/m3] | mass density ([1]; 293.15 K) [kg/m3] | mass density ([1]; 298.15 K) [kg/m3] | mass density ([1]; 303.15 K) [kg/m3] | mass density ([2]; 283.15 K) [kg/m3] | speed of sound ([2]; 283.15 K) [m/s] | mass density ([2]; 288.15 K) [kg/m3] | speed of sound ([2]; 288.15 K) [m/s] | mass density ([2]; 293.15 K) [kg/m3] | speed of sound ([2]; 293.15 K) [m/s] | mass density ([2]; 298.15 K) [kg/m3] | speed of sound ([2]; 298.15 K) [m/s] | mass density ([2]; 303.15 K) [kg/m3] | speed of sound ([2]; 303.15 K) [m/s]
1 | CCCCOCCCN [3-butoxy-1-propanamine] + O | 996.79 ± 1 | 995.99 ± 1 | 994.84 ± 1 | 993.43 ± 0.99 | 991.89 ± 0.99 | – | – | – | – | – | – | – | – | – | –
2 | OCCCO [propan-1,3-diol] | – | – | – | – | – | 1059.63 ± 1.4 | 1658.7 ± 2.4 | 1056.47 ± 1.4 | 1647.2 ± 2.4 | 1053.3 ± 1.4 | 1635.9 ± 2.4 | 1050.14 ± 1.4 | 1624.6 ± 2.4 | 1046.99 ± 1.4 | 1613.3 ± 2.4
